As usually defined, the IC50 is the concentration needed to halve the response being measured. Low values mean inhibition by little substance, high ones a need for much substance.

The text below walks through data of PubChem BioAssay AID651642 (Sanford-Burnham Center for Chemical Genomics, 2012).

In experiment [1] the test system is HL-1. The experiment in a line: protection of cardiomyocytes from stress damage, SAR follow-up, cell-based, panel, H9c2 and HL-1, H2O2, 2-deoxyglucose, ATP luminescence (AID 651642).
The test system of experiment [2] is H9c2. The experiment is described as above.
Setting [3] is: H9c2/HL-1 cardiomyocyte 2-deoxyglucose damage, mean of runs, with 2-deoxyglucose, mean IC50 across panel.
The mark [4] stands for this setting: H9c2/HL-1 cardiomyocyte 2-deoxyglucose damage, run 1, with 2-deoxyglucose.
Setting [5] is: H9c2/HL-1 cardiomyocyte 2-deoxyglucose damage, run 2, with 2-deoxyglucose.
Where [6] appears, read: H9c2/HL-1 cardiomyocyte 2-deoxyglucose damage, run 3, with 2-deoxyglucose.
[7] abbreviates: H9c2/HL-1 cardiomyocyte 2-deoxyglucose damage, run 4, with 2-deoxyglucose.
Where [8] appears, read: H9c2/HL-1 cardiomyocyte H2O2 oxidative damage, mean of runs, with H2O2, mean IC50 across panel.
[9] abbreviates: H9c2/HL-1 cardiomyocyte H2O2 oxidative damage, run 1, with H2O2.
Where [10] appears, read: H9c2/HL-1 cardiomyocyte H2O2 oxidative damage, run 2, with H2O2.
Where [11] appears, read: H9c2/HL-1 cardiomyocyte H2O2 oxidative damage, run 3, with H2O2.
The mark [12] stands for this setting: H9c2/HL-1 cardiomyocyte H2O2 oxidative damage, run 4, with H2O2.

Where only a bound is given, the exact number is not on record here.

For `COc1cc(-c2cc(C(=O)Nc3cccc(C(=O)N(C)C)c3)c3ccccc3n2)cc(OC)c1OC`, the half-maximal inhibitory concentration (IC50) turned out to be 16.5 µM in experiment [1] (setting [3]); 6.9 µM in experiment [1] (setting [4]); 7.56 µM in experiment [1] (setting [5]); 24.5 µM in experiment [1] (setting [6]); 26.9 µM in experiment [1] (setting [7]); 9.38 µM in experiment [1] (setting [8]). Also, the IC50 was 7.37 µM in experiment [1] (setting [9]); 12.8 µM in experiment [1] (setting [10]); 7.61 µM in experiment [1] (setting [11]); 9.78 µM in experiment [1] (setting [12]); over 79 µM in experiment [2] (setting [3]); over 79 µM in experiment [2] (setting [4]). Also, the IC50 was over 79 µM in experiment [2] (setting [5]); over 79 µM in experiment [2] (setting [6]); over 79 µM in experiment [2] (setting [7]); over 79 µM in experiment [2] (setting [9]); 3.17 µM in experiment [2] (setting [10]); 3.3 µM in experiment [2] (setting [11]). This compound also came in with an IC50 in experiment [2] (setting [12]) of 3.78 µM.
As for `CCOC(=O)c1cccc(NC(=O)c2cc(-c3cc(OC)c(OC)c(OC)c3)nc3ccc(C)cc23)c1`, the IC50 in experiment [1] (setting [4]) is 2.03 µM; in experiment [1] (setting [5]), 2.12 µM; in experiment [1] (setting [6]), over 79 µM; in experiment [1] (setting [7]) it was over 79 µM; in experiment [1] (setting [9]), over 79 µM; in experiment [1] (setting [10]), 2.63 µM. In addition, the 50% inhibitory concentration (IC50) is 1.79 µM in experiment [1] (setting [11]); 2.94 µM in experiment [1] (setting [12]); over 79 µM in experiment [2] (setting [3]); over 79 µM in experiment [2] (setting [4]); over 79 µM in experiment [2] (setting [5]); over 79 µM in experiment [2] (setting [6]). Also, the concentration for half-maximal inhibition (IC50) is over 79 µM in experiment [2] (setting [7]); 2.96 µM in experiment [2] (setting [8]); 2.98 µM in experiment [2] (setting [9]); 3.24 µM in experiment [2] (setting [10]); 2.59 µM in experiment [2] (setting [11]); 3.01 µM in experiment [2] (setting [12]).
Consider `CCOC(=O)c1cccc(NC(=O)c2cc(-c3cc(OC)c(OC)c(OC)c3)nc3ccc(OC)cc23)c1`, for which the IC50 in experiment [1] (setting [4]) was 2.77 µM; in experiment [1] (setting [5]), 2.79 µM; in experiment [1] (setting [6]), over 79 µM; in experiment [1] (setting [7]), over 79 µM; in experiment [1] (setting [9]), 4.24 µM; in experiment [1] (setting [10]), 4.51 µM. The IC50 in experiment [1] (setting [11]) was over 79 µM; in experiment [1] (setting [12]), 2.3 µM; in experiment [2] (setting [4]), over 79 µM; in experiment [2] (setting [5]) it was 24.6 µM; in experiment [2] (setting [6]), 35.6 µM; in experiment [2] (setting [7]), 44.4 µM. For the same compound, the IC50 came to 2.56 µM in experiment [2] (setting [8]); 2.7 µM in experiment [2] (setting [9]); 2.92 µM in experiment [2] (setting [10]); 2.05 µM in experiment [2] (setting [11]); 2.56 µM in experiment [2] (setting [12]).
Regarding `COC(=O)CNC(=O)c1cc(-c2cc(OC)c(OC)c(OC)c2)nc2ccccc12`, the IC50 in experiment [1] (setting [3]), in experiment [1] (setting [4]), in experiment [1] (setting [5]), in experiment [1] (setting [6]), in experiment [1] (setting [7]) and in experiment [1] (setting [9]) was over 79 µM in each case. Besides, the IC50 in experiment [1] (setting [10]) was 41.2 µM; in experiment [1] (setting [11]), over 79 µM; in experiment [1] (setting [12]) it was over 79 µM; in experiment [2] (setting [3]), over 79 µM; in experiment [2] (setting [4]), over 79 µM; in experiment [2] (setting [5]), over 79 µM. The IC50 in experiment [2] (setting [6]) was over 79 µM; in experiment [2] (setting [7]), over 79 µM; in experiment [2] (setting [9]), over 79 µM; in experiment [2] (setting [10]), 39.1 µM; in experiment [2] (setting [11]), over 79 µM; in experiment [2] (setting [12]), over 79 µM.
Consider `CCOC(=O)c1cccc(NC(=O)CNC(=O)c2cc(-c3cc(OC)c(OC)c(OC)c3)nc3ccccc23)c1`, for which the half-inhibitory concentration (IC50) in experiment [1] (setting [4]) was 2.08 µM; in experiment [1] (setting [5]) it was 2.42 µM; in experiment [1] (setting [6]), over 79 µM; in experiment [1] (setting [7]) it was over 79 µM; in experiment [1] (setting [9]), 9.1 µM; in experiment [1] (setting [10]), 17.9 µM. For the same compound, the IC50 is over 79 µM in experiment [1] (setting [11]); over 79 µM in experiment [1] (setting [12]); 8.17 µM in experiment [2] (setting [4]); 9.67 µM in experiment [2] (setting [5]); over 79 µM in experiment [2] (setting [6]); over 79 µM in experiment [2] (setting [7]). Besides, the IC50 is 2.07 µM in experiment [2] (setting [9]), 2.14 µM in experiment [2] (setting [10]), over 79 µM in experiment [2] (setting [11]) and over 79 µM in experiment [2] (setting [12]).
In the case of `COc1ccc2c(c1OC)C(=O)N1c3ccccc3C(=O)N(Cc3ccccc3C)C21` (configuration not stated), the IC50 in experiment [1] (setting [3]) was 3.01 µM; in experiment [1] (setting [4]) it was 1.65 µM; in experiment [1] (setting [5]) it was 1.91 µM; in experiment [1] (setting [6]) it was 3.79 µM; in experiment [1] (setting [7]), 4.71 µM; in experiment [1] (setting [8]), over 79 µM. Moreover, the concentration for half-maximal inhibition (IC50) in experiment [1] (setting [9]) is over 79 µM; in experiment [1] (setting [10]), over 79 µM; in experiment [1] (setting [11]), over 79 µM; in experiment [1] (setting [12]), over 79 µM; in experiment [2] (setting [3]), 16.3 µM; in experiment [2] (setting [4]) it was 17 µM. The IC50 in experiment [2] (setting [5]) is 18.1 µM; in experiment [2] (setting [6]), 13.8 µM; in experiment [2] (setting [7]) it was 16.2 µM; in experiment [2] (setting [9]) it was 1.32 µM; in experiment [2] (setting [10]) it was 2.6 µM; in experiment [2] (setting [11]), over 79 µM. In experiment [2] (setting [12]), this compound yielded a concentration for half-maximal inhibition (IC50) of over 79 µM.
